# According to patent US6803030B2, “Bile acids conjugates with metal ion chelates and the use thereof” (Bracco Imaging S.p.A., priority 2000, dated 2004):
# Assay: Pharmacokinetics screening in rats (biliary and urinary excretion, residual tissue content of gadolinium by ICP-AES)
# Type: in vivo
# Details: for Biliary % of the injected dose / Urinary % of the injected dose: anaesthetised CD(SD)BR male rats, i.v. 0.1 mmol/kg
# Protocol: The experimentation was performed with the complex compound of example 1.
# The screening was performed in 3 anaesthetised CD(SD)BR male rats (Charles River Italia).
# The animals were maintained according to EEC Council Directive […] as included in Italian law DL116/92 (experimental typology KIN 3).
# The contrast agent was injected in the vena saphena at the single dose of 0.1 mmol.kg^−1, injection rate of 6 mL-min^−1.
# After the administration of the complex compound, the collection of the biological fluids in the anaesthetised rats was performed by cannulation of urinary bladder and biliary duct. The urine was collected at 0 to 60, 60 to 120, 120 to 240, 240 to 480 min after injection; the bile at −30 to 0, 0 to 15, 15 to 30, 30 to 60, 60 to 120, 120 to 240, 240 to 480 min after injection.
# Animals were killed at the end of the studies by exanguination from abdominal aorta.
# Blood, liver and kidneys were collected after the sacrifice for the assay of gadolinium by inductively coupled plasma atomic emission ICP-AES.
# [1] = anaesthetised rats, intravenous, 0 to 480 min period
# [2] = anaesthetised rats, intravenous, at 480 min after administration
substance,measurement,setting,value
"Gadolinium complex of [3α[3(S),4(S)],5β,12α]-3-[[[trans-3,4-bis[[[5-[bis[2-[bis(carboxymethyl)amino]ethyl]amino]-5-carboxypentyl]amino]carbonyl]-1-pyrrolidinyl]carbonyl]oxy]-12-hydroxycholan-24-oic acid salified with sodium (1:5) [Example 1]",Biliary % of the injected dose,collection time 0 to 15 min,0.0102 ± 0.0010 % of the injected dose
same,Biliary % of the injected dose,collection time 0 to 30 min,0.0208 ± 0.0012 % of the injected dose
same,Biliary % of the injected dose,collection time 0 to 60 min,0.0374 ± 0.0023 % of the injected dose
same,Urinary % of the injected dose,collection time 0 to 60 min,11.2 ± 4.6 % of the injected dose
same,Biliary % of the injected dose,collection time 0 to 120 min,0.0561 ± 0.0052 % of the injected dose
same,Urinary % of the injected dose,collection time 0 to 120 min,18.6 ± 5.0 % of the injected dose
same,Biliary % of the injected dose,collection time 0 to 240 min,0.0950 ± 0.0073 % of the injected dose
same,Urinary % of the injected dose,collection time 0 to 240 min,27.9 ± 5.3 % of the injected dose
same,Biliary % of the injected dose,collection time 0 to 480 min,0.175 ± 0.020 % of the injected dose
same,Urinary % of the injected dose,collection time 0 to 480 min,36.2 ± 2.7 % of the injected dose
same,biliary excretion,[1],0.175 % of ID
same,urinary excretion,[1],36 % of ID
same,residual content in kidney,[2],6.7 % of the injected dose
same,residual content in liver,[2],2.564 % of the injected dose
same,residual content in plasma,[2],14.3 % of the injected dose
